{"source": "ChEMBL document CHEMBL3351755", "about": "“Elements and modulation of functional dynamics” (J Med Chem, 2014)", "key": {"[1]": {"experiment": "Binding affinity to ketosteroid isomerase (unknown origin) by NMR analysis"}, "Galectin-3": {"target": "Galectin-3 (Homo sapiens, UniProt P17931)", "sequence (P17931 whole entry)": "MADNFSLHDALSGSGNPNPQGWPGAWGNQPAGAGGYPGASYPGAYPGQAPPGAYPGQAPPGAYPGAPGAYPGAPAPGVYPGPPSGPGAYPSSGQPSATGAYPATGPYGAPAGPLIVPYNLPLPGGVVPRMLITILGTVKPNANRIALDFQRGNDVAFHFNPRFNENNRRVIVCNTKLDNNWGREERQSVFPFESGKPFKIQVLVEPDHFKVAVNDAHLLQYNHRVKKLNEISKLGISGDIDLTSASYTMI", "experiment": "Binding affinity to galectin-3 (unknown origin)"}, "[2]": {"experiment": "Binding affinity to mouse major urinary protein by NMR analysis"}, "[3]": {"experiment": "Binding affinity to Escherichia coli glucose/galactose binding protein by NMR analysis"}, "[4]": {"experiment": "Binding affinity to oxalocrotonate tautomerase (unknown origin) by NMR analysis"}, "[5]": {"target": "T1, 6-phosphogluconolactonase (Trypanosoma brucei, UniProt Q9GRG6)", "T1 sequence (Q9GRG6 whole entry)": "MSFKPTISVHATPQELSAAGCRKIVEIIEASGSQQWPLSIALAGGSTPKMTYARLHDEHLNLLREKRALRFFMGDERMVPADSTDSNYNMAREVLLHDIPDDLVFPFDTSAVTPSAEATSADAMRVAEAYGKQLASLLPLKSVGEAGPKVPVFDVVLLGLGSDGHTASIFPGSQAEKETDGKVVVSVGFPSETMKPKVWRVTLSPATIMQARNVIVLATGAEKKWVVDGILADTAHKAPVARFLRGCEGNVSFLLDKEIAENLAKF", "experiment": "Binding affinity to Trypanosoma brucei 6-phospho-gluconalactonase by NMR analysis"}, "[6]": {"experiment": "Binding affinity to quail siderocalin Q83 by NMR analysis", "parameters": "species or system Galliformes"}, "[7]": {"experiment": "Binding affinity to hen egg-white lysozyme by NMR analysis", "parameters": "species or system Gallus gallus"}, "[8]": {"experiment": "Binding affinity to Escherichia coli ribose binding protein by NMR analysis"}, "[9]": {"target": "T2, Thiopurine S-methyltransferase (Homo sapiens, UniProt P51580)", "T2 sequence (P51580 whole entry)": "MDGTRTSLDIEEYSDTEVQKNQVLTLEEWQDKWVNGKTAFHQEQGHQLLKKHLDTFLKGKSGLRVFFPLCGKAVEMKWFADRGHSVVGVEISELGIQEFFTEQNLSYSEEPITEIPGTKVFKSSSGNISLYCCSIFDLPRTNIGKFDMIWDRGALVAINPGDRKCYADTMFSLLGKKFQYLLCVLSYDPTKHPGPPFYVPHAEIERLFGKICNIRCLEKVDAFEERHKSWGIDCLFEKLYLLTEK", "experiment": "Binding affinity to thiopurine methyltransferase (unknown origin) by NMR analysis"}}, "data": [{"compound": "C[C@]12CC[C@H]3[C@@H](CCC4=CC(=O)CC[C@@H]43)[C@@H]1CC[C@@H]2O", "values": [{"measurement": "Kd", "setting": "[1]", "result": 5.5, "unit": "µM"}]}, {"compound": "CC(=O)N[C@H]1C(O)O[C@H](CO)[C@@H](O[C@@H]2O[C@H](CO)[C@H](O)[C@H](NC(=O)c3ccccc3)[C@H]2O)[C@@H]1O", "note": "(stereo partly drawn)", "values": [{"measurement": "Kd", "setting": "Galectin-3", "result": 18.2, "unit": "µM"}]}, {"compound": "CCC(C)C1=NCCS1", "note": "(stereo not drawn)", "values": [{"measurement": "Kd", "setting": "[2]", "result": 0.9, "unit": "µM"}]}, {"compound": "COc1c(F)c(F)c(C(=O)N[C@H]2[C@@H](O)[C@@H](CO)O[C@@H](O[C@H]3[C@H](O)[C@@H](NC(C)=O)C(O)O[C@@H]3CO)[C@@H]2O)c(F)c1F", "note": "(stereo partly drawn)", "values": [{"measurement": "Kd", "setting": "Galectin-3", "result": 3.3, "unit": "µM"}]}, {"compound": "COc1nccnc1CC(C)C", "values": [{"measurement": "Kd", "setting": "[2]", "result": 0.3, "unit": "µM"}]}, {"compound": "OC[C@H]1OC(O)[C@H](O)[C@@H](O)[C@@H]1O", "note": "(stereo partly drawn) [DEXTROSE]", "values": [{"measurement": "Kd", "setting": "[3]", "result": 0.29, "unit": "µM"}]}, {"compound": "CC1(C)SCN(C(=O)[C@@H](CS)Cc2ccccc2)[C@H]1C(=O)O", "values": [{"measurement": "Kd", "setting": "[4]", "result": 590, "unit": "µM"}]}, {"compound": "O=C(O)[C@H](O)[C@@H](O)[C@H](O)[C@H](O)COP(=O)(O)O", "values": [{"measurement": "Kd", "setting": "[5]", "result": 10, "unit": "µM"}]}, {"compound": "O=C(N[C@H]1COC(=O)[C@@H](NC(=O)c2cccc(O)c2O)COC(=O)[C@@H](NC(=O)c2cccc(O)c2O)COC1=O)c1cccc(O)c1O", "note": "[ENTEROBACTIN]", "values": [{"measurement": "Kd", "setting": "[6]", "result": 0.0005, "unit": "µM"}]}, {"compound": "N[C@H]1[C@H](O[C@H]2[C@H](O)[C@@H](N)[C@H](O[C@H]3[C@H](O)[C@@H](N)C(O)O[C@@H]3CO)O[C@@H]2CO)O[C@H](CO)[C@@H](O)[C@@H]1O", "note": "(stereo partly drawn)", "values": [{"measurement": "Kd", "setting": "[7]", "result": 14, "unit": "µM"}]}, {"compound": "c1ccc(Nc2cccc3ccccc23)cc1", "values": [{"measurement": "Kd", "setting": "[2]", "result": 0.032, "unit": "µM"}]}, {"compound": "O[C@@H]1[C@H](O)[C@H](O)CO[C@H]1O", "note": "[RIBOSE (PYRANOSE)]", "values": [{"measurement": "Kd", "setting": "[8]", "result": 0.17, "unit": "µM"}]}, {"compound": "Nc1ncnc2c1ncn2[C@@H]1O[C@H](C[C@@H](N)CC[C@H](N)C(=O)O)[C@@H](O)[C@H]1O", "note": "[SINEFUNGIN]", "values": [{"measurement": "Kd", "setting": "[9]", "result": 10, "unit": "µM"}]}]}
